This is an account of results in ChEMBL document CHEMBL4229469, “Small molecule scaffolds that disrupt the Rev1-CT/RIR protein-protein interaction” (Bioorg Med Chem, 2018).

Data set [1] concerns the target T1, DNA repair protein REV1 (Homo sapiens, UniProt Q9UBZ9).
T1 sequence (Q9UBZ9 whole entry): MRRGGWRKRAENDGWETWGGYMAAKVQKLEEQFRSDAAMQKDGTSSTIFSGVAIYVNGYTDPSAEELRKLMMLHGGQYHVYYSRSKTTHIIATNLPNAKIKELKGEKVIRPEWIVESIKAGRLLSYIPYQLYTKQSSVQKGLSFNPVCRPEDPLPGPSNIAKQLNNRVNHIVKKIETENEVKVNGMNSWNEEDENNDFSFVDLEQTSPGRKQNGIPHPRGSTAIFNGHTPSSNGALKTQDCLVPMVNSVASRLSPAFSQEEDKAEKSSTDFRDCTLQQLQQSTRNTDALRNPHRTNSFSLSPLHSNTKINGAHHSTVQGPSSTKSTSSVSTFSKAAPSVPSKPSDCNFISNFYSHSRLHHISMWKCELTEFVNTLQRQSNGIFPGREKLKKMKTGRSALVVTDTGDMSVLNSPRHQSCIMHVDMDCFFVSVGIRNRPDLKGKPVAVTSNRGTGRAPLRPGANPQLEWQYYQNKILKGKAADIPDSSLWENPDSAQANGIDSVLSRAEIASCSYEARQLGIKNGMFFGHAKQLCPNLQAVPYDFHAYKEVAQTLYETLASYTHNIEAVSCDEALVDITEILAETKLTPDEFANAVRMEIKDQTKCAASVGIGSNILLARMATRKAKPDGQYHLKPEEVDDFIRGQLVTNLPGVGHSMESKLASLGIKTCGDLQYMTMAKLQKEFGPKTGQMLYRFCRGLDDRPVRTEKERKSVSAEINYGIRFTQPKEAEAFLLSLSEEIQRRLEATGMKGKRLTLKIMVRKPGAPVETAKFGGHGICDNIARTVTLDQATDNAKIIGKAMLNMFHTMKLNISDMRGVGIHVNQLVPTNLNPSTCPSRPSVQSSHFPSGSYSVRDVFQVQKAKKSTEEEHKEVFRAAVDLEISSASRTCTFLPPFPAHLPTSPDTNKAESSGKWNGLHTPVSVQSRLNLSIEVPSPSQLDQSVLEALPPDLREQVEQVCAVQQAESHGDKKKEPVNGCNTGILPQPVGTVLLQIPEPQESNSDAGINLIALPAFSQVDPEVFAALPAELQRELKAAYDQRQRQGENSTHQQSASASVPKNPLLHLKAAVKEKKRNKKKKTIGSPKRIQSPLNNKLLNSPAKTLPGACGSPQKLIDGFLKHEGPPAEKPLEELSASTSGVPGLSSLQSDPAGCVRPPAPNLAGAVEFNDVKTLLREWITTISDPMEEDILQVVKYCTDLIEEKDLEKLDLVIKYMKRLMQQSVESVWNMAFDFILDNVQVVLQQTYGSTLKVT
In words: Displacement of FAM-labelled polkappa-RIR peptide from recombinant human C-terminal Rev1 (1158 to 1251 residues) expressed in Escherichia coli BL21(DE3) after 1 hr by fluorescence polarization assay.

For data set [2], the target named is T2, DNA repair protein REV1 (Homo sapiens) (UniProt Q9UBZ9).
T2 sequence (whole entry): T1 sequence (Q9UBZ9 whole entry)
Description: Displacement of FAM-labelled polkappa-RIR peptide from recombinant human C-terminal Rev1 (1158 to 1251 residues) expressed in Escherichia coli BL21(DE3) at 10 uM after 1 hr by fluorescence polarization assay relative to control. A general note: In fluorescence polarisation assays a small probe gives low polarisation when free and higher when bound to something large.

Data set [3] is described as follows: Retention time of the compound in human liver microsomes at 10 uM by LC-MS/MS analysis. The class given is ADME, microsome. In general terms: Liver microsomes are a subcellular fraction often used to study metabolism.
Data set [4] concerns U2OS. Description: Potentiation of cisplatin-induced cytotoxicity in cisplatin-resistant human U2OS cells assessed as cisplatin GI50 at 50 uM after 72 hrs by MTS assay (reference value: 23.9 +/- 1.9 uM). In kind it is functional. (In general: Tetrazolium assays rely on reduction of a dye to a coloured formazan, in cell work by metabolically active cells.)
The nature of data set [5]: Growth inhibition of cisplatin-resistant human U2OS cells after 72 hrs by MTS assay. The class given is cell-based.
The subject of data set [6] is U2OS. In words: Potentiation of cisplatin-induced cytotoxicity in cisplatin-resistant human U2OS cells assessed as cisplatin GI50 at 25 uM after 72 hrs by MTS assay (reference value: 23.9 +/- 1.9 uM). The class given is functional.
For data set [7], the system named is U2OS. Description: Potentiation of cisplatin-induced cytotoxicity in cisplatin-resistant human U2OS cells assessed as cisplatin GI50 at 10 uM after 72 hrs by MTS assay (reference value: 23.9 +/- 1.9 uM). The class given is functional.
Data set [8] concerns U2OS. Description: Potentiation of cisplatin-induced cytotoxicity in cisplatin-resistant human U2OS cells assessed as increase in cisplatin-induced reduction in colony survival at 20 uM treated for 24 hrs measured after 7 days by Coomassie Brilliant Blue R-250 staining based assay. The class given is functional, cell-based.

pIC50, pKd, pKi: −log10 of the molar value. Active and inactive are the calls of the source. No cut-off for these calls is given here. Where only a bound is given, the exact number is not on record here.

The term pIC50 denotes the IC50 on a negative log10 scale, so that one unit is a factor of ten. Broadly, the pKd is the Kd on a negative log10 scale, so that one unit is a factor of ten. What is called pKi is −log10 of the Ki, conventionally taken in molar units. By inhibition is commonly meant the share of the control response that was lost under treatment. On to `CCCc1cc(C(=O)OCC)c(NC(=O)C2CCN(C(C)=O)CC2)s1`, for which, in data set [1], the pIC50 was 5.23, the pKd was 5.11 and the pKi was 4.94. Also, in data set [2], the inhibition is over 85%.
For `COC(=O)c1cc(C)sc1NC(=O)C1CCN(C(C)=O)CC1`, in that order: 5.03, 5.09, 5.13 and over 85%.
With `CCCc1cc(C(=O)O)c(NC(=O)C2CCN(C(C)=O)CC2)s1`, the Retention_time in data set [3] is 3.8 min.
For the molecule `CCn1c2ccccc2c2cc(NC(=O)N3CCC(C(C)=O)CC3)ccc21`, in data set [1], the pIC50 is 5.34, the pKd was 5.16 and the pKi was 5.05. Also, the inhibition in data set [2] was over 85%.
As usually defined, the GI50 is the concentration that inhibits growth by half. `COc1ccc(OC)c(-c2csc(N3CCN(C(=O)c4ccco4)CC3)n2)c1`: the GI50 in data set [4] is 11.8 µM. In data set [1], the pIC50 was 5.21, the pKd was 5.43 and the pKi was 5.32. For the same molecule, the inhibition in data set [2] is over 85%. Also, the GI50 at 72 h in data set [5] is over 100 µM. Further, the GI50 in data set [6] is 11.9 µM.
With `CCc1ccc(NC(=O)CN2CCN(c3ccc(OC)cc3)CC2)cc1`, in data set [1], the pIC50 was 5.26, the pKd is 5.44 and the pKi is 5.44. For the same molecule, in data set [2], the inhibition is over 85%.
For `N#Cc1ccc(NC(=O)CN2CCN(c3ccc(F)cc3)CC2)cc1`, in data set [1], the pIC50 was under 4.30 and the pKd was 3.96. Further, the inhibition in data set [2] was over 85%.
For the molecule `O=C(CN1CCN(c2ccc(F)cc2)CC1)Nc1ccccc1`, in data set [1], the pIC50 is 4.55, the pKd is 4.37 and the pKi is 4.33. The inhibition in data set [2] was over 85%.
For `Cc1cccc(N2CCN(CC(=O)Nc3ccc(F)cc3)CC2)c1C`, in that order: 4.68, 4.91, 4.83 and over 85%.
`CCCCc1ccc(-n2nnc(C(=O)N(C)C3CCS(=O)(=O)C3)c2C)cc1` (stereo not given): the GI50 in data set [4] was 20.1 µM. In data set [1], the pIC50 was 5.23, the pKd was 5.44 and the pKi was 5.31. Besides, in data set [2], the inhibition was over 85%. This molecule yielded a GI50 at 72 h in data set [5] of over 100 µM. The GI50 in data set [6] was 25.7 µM.
In the case of `CC(=O)N1CCC(C(=O)Nc2sc3c(c2C(N)=O)CCC(C)C3)CC1` (stereo not given), in data set [1], the pIC50 was 4.88, the pKd was 4.90 and the pKi is 4.80. The inhibition in data set [2] was over 85%.
For `CC(=O)N1CCC(C(=O)Nc2sc3c(c2C(=O)NC2CC2)CCCC3)CC1`, in that order: 4.67, 4.58, 4.50 and over 85%.
On to `CC(=O)C(C)n1c(CN2CCN(c3cccc(Cl)c3)CC2)nc2c1c(=O)n(C)c(=O)n2C` (stereo not given), for which the 50% growth inhibitory concentration (GI50) in data set [4] is 7.8 µM; in data set [7] it was 19.3 µM; in data set [6], 12.3 µM. Also, the pIC50 in data set [1] was 5.60. The pKd in data set [1] was 5.68. Besides, the pKi in data set [1] is 5.70. Also, the inhibition in data set [2] is over 85%. Also, in data set [5], the GI50 at 72 h was over 100 µM.
Consider `Cc1ccc(C(=O)N2CCN(c3ccccc3)CC2)cc1S(=O)(=O)N1CCOCC1`, for which the GI50 in data set [4] came out at 28.2 µM. In data set [1], the pIC50 was 5.46, the pKd was 5.54 and the pKi was 5.52. Also, the inhibition in data set [2] was over 85%. Further, the GI50 at 72 h in data set [5] is over 100 µM.
On to `CC(C)(C)C(=O)N1CCN(c2ccc(NC(=O)c3cccnc3)cc2Cl)CC1`, for which, in data set [4], the GI50 was 25.9 µM. In addition, in data set [1], the pIC50 is 4.91, the negative logarithm of the Kd (pKd) is 4.74 and the pKi was 4.72. Further, the inhibition in data set [2] was over 85%. This molecule had a GI50 at 72 h in data set [5] of over 100 µM.
For `CCCc1cc(C(=O)OC)c(NC(=O)C2CCNCC2)s1`, in data set [3], the Retention_time was determined as 10.58 min.
Consider `CCc1ccc(NC(=O)CN2CCN(c3ccc(F)cc3)CC2)cc1`, for which, in data set [1], the pIC50 was 5.60, the negative logarithm of the Kd (pKd) was 5.19 and the pKi is 5.16. Moreover, in data set [2], the inhibition is over 85%.
As to `CCc1ccc(NC(=O)CN2CCN(c3ccccc3)CC2)cc1`, in data set [1], the pIC50 was under 4.30 and the negative logarithm of the Kd (pKd) was 4.31. Also, the inhibition in data set [2] is over 85%.
With `CCCC1CCc2c(sc(NC(=O)C3CCN(C(C)=O)CC3)c2C(N)=O)C1` (stereo not given), in data set [1], the negative-log IC50 (pIC50) is 5.31, the pKd is 5.02 and the pKi was 4.92. Besides, the inhibition in data set [2] was over 85%.
As for `CC(=O)N1CCC(C(=O)Nc2sc3c(c2C(=O)NC2CC2)CCC(C)C3)CC1` (stereo not given), the GI50 in data set [4] worked out at 15.3 µM. In addition, in data set [1], the pIC50 is 5.60, the negative-log Kd (pKd) is 5.36 and the pKi is 5.34. Moreover, the inhibition in data set [2] is over 85%. Further, in data set [8], the outcome was inactive. Further, the GI50 at 72 h in data set [5] is over 100 µM. In data set [6], the GI50 was determined as 24.4 µM.
Turning to `CCS(=O)(=O)N(C)c1ccc(C(=O)N2CCN(c3ccccc3OC)CC2)cc1`, the GI50 in data set [4] came to 11.9 µM. In data set [1], the pIC50 is 5.34, the pKd is 5.37 and the pKi is 5.33. Besides, in data set [2], the inhibition was over 85%. Also, the 50% growth inhibitory concentration (GI50) at 72 h in data set [5] was over 100 µM. Also, in data set [6], the GI50 came to 13.3 µM.
Regarding `CCc1cc(C(=O)OC)c(NC(=O)C2CCN(C(C)=O)CC2)s1`, in data set [1], the pIC50 is 4.91, the pKd is 4.63 and the pKi was 4.54. In data set [2], the inhibition is over 85%.
Consider `COc1cc2c(cc1OC)CN(Cc1ccc(OCc3ccccc3)cc1)CC2`, for which the GI50 in data set [4] was 10.1 µM. In data set [1], the negative logarithm of the IC50 (pIC50) is 4.92, the pKd was 4.90 and the pKi was 4.84. Further, the inhibition in data set [2] was over 85%. Also, the result in data set [8] was Active. In data set [5], this molecule gave a GI50 at 72 h of over 100 µM. For the same molecule, the GI50 in data set [7] turned out to be 16.5 µM. Besides, the GI50 in data set [6] turned out to be 13.4 µM.
